Assay results reported in patent publication US8377932B2, “Preparation of 1-(substituted benzyl)-5-trifluoromethyl-2(1H)pyridone compounds and salts thereof and their applications” (Central South University, priority 2009, dated 2013).

Tests used:
[1] = tested on: NIH3T3 fibroblasts; assay: Inhibition test of compounds on NIH3T3 fibroblasts (MTT method); format: cell-based; conditions: Mus musculus, relative IC50 obtained from multiple and IC50 of fluorofenidone on a certain plate
Procedure: Inhibition Test of Compounds on NIH3T3 fibroblasts
An MTT method is used and comprises steps of: culturing cells in DMEM culture medium including 5% calf serum and preparing the cells into cell suspension of 3×10^4/ml; inoculating in 96-well plate according to 100 μl/well; transferring new culture medium including compounds with different concentration, fluorofenidone and 1% calf serum after cells are adhered, wherein three repeated wells are provided for each concentration; respectively adding 100 μl of MTT solution in each well after 48 hours and 72 hours of administrating (the culture medium is prepared into 5 mg/ml and kept in dark after filtering), sucking out MTT after 4 hours; adding 150 μl of DMSO which is the dissolving liquid of MTT; after 10 min and MTT is completely dissolved, measuring OD value by ELISA reader; calculating IC50 values of fluorofenidone and measured compounds according to inhibition ratio; calculating multiple of activities of measured compounds and fluorofenidone according to IC50 values of fluorofenidone and measured compounds; and obtaining relative IC50 value of measured compounds according to multiple and IC50 value of fluorofenidone on a certain plate.

[2] = tested on: rat unilateral ureteral obstruction renal fibrosis model; assay: Treatment effect in a rat unilateral ureteral obstruction renal fibrosis model (HE and Masson staining); format: in vivo
Procedure: Observation of Treatment Effect of Compound 13 in a Rat Unilateral Ureteral Obstruction Renal Fibrosis Model
Nine male SD rats of 188-213 g, coming from Hunan Slac Laboratory Animals Co., Ltd., are illuminated for 12 hours every day; feed is provided by Shanghai Slac Laboratory Animals Co., Ltd.; and drinking water is provided by Department of Laboratory Animal Science of Central South University.
(1) Randomization: nine rats are divided into three groups at random, namely a normal group (n=3); a model group (n=3) and a treatment group (n=3) treated by compound 13 of 15 mg/kg; three rats are in a hutch; and the experimental animals are adaptively fed for two days. […]
HE stained slices of renal tissues are successively observed in fives fields of view of renal tubulointerstitium on upper left side, upper right side, lower left side, lower right side and middle portion by a low power lens and are evaluated according to eight indexes of renal interstitium lesion: renal tubular epithelial cell vacuolar degeneration, renal tubular ectasia, renal tubular atrophy, red cell cast, protein cast, interstitial edema, interstitial fibrosis and interstitial inflammatory cell infiltration; an average value is calculated as the index of renal tubulointerstitial lesion of the sample; and the evaluation standard is based on the reference of Radford M G Jr, Donadio J V Jr, Bergstralh E J, et al. Predicting renal outcome in IgA nephropathy. […]
Masson stained slices of renal tissues are observed in 20 fields of vision for each sample at random under 400× light microscope; percent of blue-stained collagens in the fields of vision is calculated; an average value is determined after semi-quantitative evaluation: no positive staining, 0; <25%, 1; 25-50%, 2; 50-75%, 3; >75%, 4; and the evaluation standard is based on references. […]

Structure (SMILES) | IC50 ([1]; 48 hours after administration) | IC50 ([1]; 72 hours after administration) | Score (X ± S), renal interstitium collagens of left kidneys, MASSON staining ([2]; SD rats, UUO, 15 mg/kg intragastric once per day for 12 days, n=3, model group 2.45 ± 0.38, normal group 0.25 ± 0.00, p < 0.01 vs model) | Score (X ± S), index of renal tubulointerstitial lesions of obstruction kidneys, HE staining ([2]; SD rats, UUO, 15 mg/kg intragastric once per day for 12 days, n=3, model group 9.00 ± 1.00, normal group 0.33 ± 0.12, p < 0.01 vs model) | Treatment effect on renal fibrosis (conclusion) ([2]; rat UUO model, 15 mg/kg)
Nc1ccc(Cn2cc(C(F)(F)F)ccc2=O)cc1 [Compound 2, 1-(4-amino-benzyl)-5-(trifluoromethyl)pyridin-2(1H)-one] | 1390 µM | 1510 µM |  |  | 
O=c1ccc(C(F)(F)F)cn1Cc1ccc(NCCN2CCN(CCO)CC2)cc1 [Compound 11, 1-(4-((2-(4-(2-hydroxyethyl)piperazin-1-yl)ethyl)amino)benzyl)-5-(trifluoromethyl)pyridin-2(1H)-one] | 526 µM | 131 µM |  |  | 
CN1CCN(CCCNc2ccc(Cn3cc(C(F)(F)F)ccc3=O)cc2)CC1 [Compound 5, 1-(4-((3-(4-methyl-piperazin-1-yl)propyl)amino)benzyl)-5-(trifluoromethyl)pyridin-2(1H)-one] | 141 µM | 98 µM |  |  | 
O=c1ccc(C(F)(F)F)cn1Cc1c(Cl)cccc1Cl [Compound 14, 1-(2,6-dichlorobenzyl)-5-(trifluoromethyl)pyridin-2(1H)-one] | 346 µM | 182 µM |  |  | 
O=c1ccc(C(F)(F)F)cn1Cc1ccc(NCCCN2CCOCC2)cc1 [Compound 3, 1-(4-((3-morpholinylpropyl)amino)benzyl)-5-(trifluoromethyl)pyridin-2(1H)-one] | 424 µM | 229 µM |  |  | 
O=c1ccc(C(F)(F)F)cn1Cc1ccccc1NCCO [Compound 21, 1-(2-(2-hydroxyethylamino)benzyl)-5-(trifluoromethyl)pyridin-2(1H)-one] | 664 µM | 587 µM |  |  | 
Nc1ccccc1Cn1cc(C(F)(F)F)ccc1=O [Compound 17, 1-(2-aminobenzyl)-5-(trifluoromethyl)pyridin-2(1H)-one] | 1810 µM | 1270 µM |  |  | 
CC(=O)Nc1ccc(Cn2cc(C(F)(F)F)ccc2=O)cc1 [Compound 13, 1-(4-acetamide-benzyl)-5-(trifluoromethyl)pyridin-2(1H)-one] | 128 µM | 68 µM | 1.52 ± 0.16^⋆⋆** | 7.00 ± 0.35^⋆⋆** | can effectively treat renal fibrosis
O=c1ccc(C(F)(F)F)cn1Cc1ccc(NCCCN2CCCCC2)cc1 [Compound 4, 1-(4-(((3-piperidin-1-yl)propyl)amino)benzyl)-5-(trifluoromethyl)pyridin-2(1H)-one] | 957 µM | 144 µM |  |  | 
O=c1ccc(C(F)(F)F)cn1Cc1ccccc1NCCN1CCNCC1 [Compound 22, 1-(2-(2-(piperazin-1-yl)ethylamino)benzyl)-5-(trifluoromethyl)pyridin-2(1H)-one] | 168 µM | 291 µM |  |  | 
O=c1ccc(C(F)(F)F)cn1Cc1ccccc1[N+](=O)[O-] [Compound 16, 1-(2-nitrobenzyl)-5-(trifluoromethyl)pyridin-2(1H)-one] | 1040 µM | 1030 µM |  |  | 
Cc1ccc(=O)n(-c2cccc(F)c2)c1 [Fluorofenidone, reference compound] | 4430 µM | 3520 µM |  |  | 
O=c1ccc(C(F)(F)F)cn1Cc1ccc([N+](=O)[O-])cc1 [Compound 1, 1-(4-nitrobenzyl)-5-(trifluoromethyl)pyridin-2(1H)-one] | 552 µM | 470 µM |  |  | 
COc1ccc(Cn2cc(C(F)(F)F)ccc2=O)cc1 [Compound 19, 1-(4-methoxybenzyl)-5-(trifluoromethyl)pyridin-2(1H)-one] | 301 µM | 384 µM |  |  | 
O=c1ccc(C(F)(F)F)cn1Cc1ccccc1NCCN1CCOCC1 [Compound 25, 1-(2-(2-morpholinoethylamino)benzyl)-5-(trifluoromethyl)pyridin-2(1H)-one] | 368 µM | 264 µM |  |  | 
O=c1ccc(C(F)(F)F)cn1Cc1ccc(NCCN2CCCCC2)cc1 [Compound 7, 1-(4-((2-(piperidyl-1-yl)ethyl)amino)benzyl)-5-(trifluoromethyl)pyridin-2(1H)-one] | 4180 µM | 340 µM |  |  | 
O=c1ccc(C(F)(F)F)cn1Cc1ccc(F)cc1 [Compound 15, 1-(4-fluorobenzyl)-5-(trifluoromethyl)pyridin-2(1H)-one] | 1080 µM | 1090 µM |  |  | 
O=c1ccc(C(F)(F)F)cn1Cc1ccccc1F [Compound 20, 1-(2-fluorobenzyl)-5-(trifluoromethyl)pyridin-2(1H)-one] | 273 µM | 393 µM |  |  | 
O=c1ccc(C(F)(F)F)cn1Cc1ccccc1 [Structure IV, reference compound] | 1160 µM | 729 µM |  |  | 
CN1CCN(CCNc2ccc(Cn3cc(C(F)(F)F)ccc3=O)cc2)CC1 [Compound 9, 1-(4-((2-(4-methyl-piperazin-1-yl)ethyl)amino)benzyl)-5-(trifluoromethyl)pyridin-2(1H)-one] | 181 µM | 120 µM |  |  | 
O=c1ccc(C(F)(F)F)cn1Cc1cccc(Cl)c1 [Compound 18, 1-(3-chlorobenzyl)-5-(trifluoromethyl)pyridin-2(1H)-one] | 1460 µM | 1350 µM |  |  | 
O=c1ccc(C(F)(F)F)cn1Cc1ccc(NCCO)cc1 [Compound 6, 1-(4-((2-hydroxyethyl)amino)benzyl)-5-(trifluoromethyl)pyridin-2(1H)-one] | 1010 µM | 638 µM |  |  | 
O=c1ccc(C(F)(F)F)cn1Cc1ccc(NCCN2CCOCC2)cc1 [Compound 8, 1-(4-((2-morpholinylethyl)amino)benzyl)-5-(trifluoromethyl)pyridin-2(1H)-one] | 367 µM | 229 µM |  |  | 
